Measurements reported in patent publication US10130830B2, “Preservative systems comprising cationic surfactants” (Laboratorios Miret, S.A., priority 2005, dated 2018).
Values joined by “and” are separate entries in the source; they are usually repeats but may differ in a detail not shown here. Equal values may be shown once.

Assays:
[1] = tested on: inoculated microorganisms; assay: Preservative action in cosmetic products, overall outcome against the inoculum mixture; type: cell-based; settings: Example 17, oil in water emulsion with an ionic emulsifier, 0.20 g of LAE/kg
Description: (1) Determination of Preservative Action in Cosmetic Products. […] This assay consists of the contamination of the protecting formulations with an inoculum mixture of 10^8 cfu/ml concentration, for each of the micro-organisms, and the determination of the number of viable cells in time. This inoculum mixture is composed of the following microorganisms: [table] The cosmetic composition to be analysed is divided into sterile containers with 50 g of product for each flask. Each container is inoculated with 0.5 ml of inoculum (10^8 cfu/ml). The target concentration is 10^6 cfu/ml, approximately. All the containers are kept at a temperature between 20-25° C. and are protected from light. The level of the microbial contamination is checked at 0 hours, 7 days, 14 days and 28 days. The number of colonies is evaluated by dilution in buffer peptone with the appropriate neutraliser agent of the preservative. The culture media used for counting the microorganisms are: […] (2) Determination of Preservative Action in Chicken Breast. Process of Preparation • 1. Fresh chicken breast was diced to pieces • 2. Brine (8.70% sodium chloride and 4.35% tripolyphosphate in water) was added to the fresh chicken in an amount of 11.5 g brine per 88.5 g meat in the control preparation and 11.5 g brine and 88.4 g meat in the preparations treated with preservative. • 3. […]

aerobic total count = assay: Preservative action in cooked chicken breast, aerobic total count; type: cell-based; settings: for counts (aerobic total count): for 5 weeks
Procedure: (2) Determination of Preservative Action in Chicken Breast. Process of Preparation • 1. Fresh chicken breast was diced to pieces • 2. Brine (8.70% sodium chloride and 4.35% tripolyphosphate in water) was added to the fresh chicken in an amount of 11.5 g brine per 88.5 g meat in the control preparation and 11.5 g brine and 88.4 g meat in the preparations treated with preservative. • 3. Brine and meat were mixed during 15 minutes, in the preparations treated with preservative the preservative was added after 14 minutes in an amount of 0.2 g/kg. • 4. Vacuum refrigerate tumbling was made during 30 minutes. • 5. Samples were vacuum-packed in sterile bags and they were cooked at 85° C. for 30 minutes. • 6. The cooked chicken was refrigerated at 4° C. • 7. The cooked chicken was diced in irregular shapes. • 8. Then, the nuggets were stored at 10° C. in sterile vacuum-packed bags. Analysis […] Dilutions were made in buffered peptone water. Tryptone Soya Agar was harvested with each dilution and incubated at 35° C. for 48 hours. The mean value in log cfu/g of three samples per treatment and day of analysis was calculated.

[2] = Concentration of LAE in soaked chickpeas (HPLC); type: physicochemical; settings: Example 13, soaked chickpeas; for Concentration of LAE (HPLC method) expressed as % of initial dose, mean / Concentration of LAE (HPLC method) expressed as % of initial dose: LAE 0.2 g/kg in soaking water; for Concentration of LAE (HPLC method) expressed as % of initial dose, mean: mean of triplicate; for Concentration of LAE (HPLC method) expressed as % of initial dose: samples 1-3, monohydrochloride
Procedure: (4) Determination of Preservative Action in Soaked Chick-peas.
Chickpeas are the principal ingredients in a lot of ready-to-eat meals. Before cooking them, chickpeas have to be soaked in water at room temperature for 24 hours. During this period, fermentation processes may occur and therefore, chickpeas would not be suitable for eating. The soaking process cannot be made at refrigeration temperatures, because the structure of the chickpeas could be damaged.
• 1. Chickpeas were soaked in water for 24 hours at 30° C. and 50% HR (in treated samples preservative was added at this point); and • 2. after 24 hours the chickpeas were strained. Analysis • Samples were analysed (aerobic total count and concentration of the cationic surfactant) by triplicate for 24 hours. • Aerobic total count was analysed by stomaching 25 g of chickpeas in 225 g of buffered peptone water. Dilutions were made in buffered peptone water. Tryptone Soya Agar was harvested with each dilution and incubated at 35° C. for 48 hours. • Average values in log cfu/g of three samples per treatment and day of analysis were calculated. • LAE was analysed by HPLC using an internally validated method.

CCCCCCCCCCCC(=O)N[C@@H](CCCN=C(N)N)C(=O)OCC.Cl [LAE, ethyl ester of the lauramide of the arginine monohydrochloride]
preservation outcome [1]: effectively preserved
aerobic total count, mean (aerobic total count; Example 9, cooked chicken, 0.2 g/kg, day 0, mean of triplicate): 2.0 log cfu/g
aerobic total count (aerobic total count; Example 9, cooked chicken, 0.2 g/kg, day 0, samples 1-3): 2.0 log cfu/g
aerobic total count, mean (aerobic total count; Example 9, cooked chicken, 0.2 g/kg, day 7, mean of triplicate): 2.0 log cfu/g
aerobic total count (aerobic total count; Example 9, cooked chicken, 0.2 g/kg, day 7, samples 1-3): 2.0 log cfu/g
aerobic total count, mean (aerobic total count; Example 9, cooked chicken, 0.2 g/kg, day 14, mean of triplicate): 2.3 log cfu/g
aerobic total count (aerobic total count; Example 9, cooked chicken, 0.2 g/kg, day 14, samples 1-3, monohydrochloride): 2.0 log cfu/g and 2.5 log cfu/g and 2.3 log cfu/g
aerobic total count, mean (aerobic total count; Example 9, cooked chicken, 0.2 g/kg, day 21, mean of triplicate): 2.8 log cfu/g
aerobic total count (aerobic total count; Example 9, cooked chicken, 0.2 g/kg, day 21, samples 1-3, monohydrochloride): 3.0 log cfu/g and 2.8 log cfu/g and 2.6 log cfu/g
aerobic total count, mean (aerobic total count; Example 9, cooked chicken, 0.2 g/kg, day 28, mean of triplicate): 3.3 log cfu/g
aerobic total count (aerobic total count; Example 9, cooked chicken, 0.2 g/kg, day 28, samples 1-3): 3.1 log cfu/g
aerobic total count (aerobic total count; Example 9, cooked chicken, 0.2 g/kg, day 28, samples 1-3, monohydrochloride): 3.2 log cfu/g and 3.5 log cfu/g
aerobic total count, mean (aerobic total count; Example 9, cooked chicken, 0.2 g/kg, day 35, mean of triplicate): 3.6 log cfu/g
aerobic total count (aerobic total count; Example 9, cooked chicken, 0.2 g/kg, day 35, samples 1-3): 3.6 log cfu/g
aerobic total count (aerobic total count; Example 9, cooked chicken, 0.2 g/kg, day 35, samples 1-3, monohydrochloride): 3.8 log cfu/g and 3.3 log cfu/g
aerobic total count, mean (aerobic total count; Example 9, cooked chicken, 0.2 g/kg, day 42, mean of triplicate): 4.1 log cfu/g
aerobic total count (aerobic total count; Example 9, cooked chicken, 0.2 g/kg, day 42, samples 1-3, monohydrochloride): 4.0 log cfu/g and 4.3 log cfu/g and 4.1 log cfu/g
aerobic total count, mean (aerobic total count; Example 9, cooked chicken, 0.2 g/kg, day 49, mean of triplicate): 5.0 log cfu/g
aerobic total count (aerobic total count; Example 9, cooked chicken, 0.2 g/kg, day 49, samples 1-3, monohydrochloride): 5.1 log cfu/g and 4.7 log cfu/g and 5.2 log cfu/g
aerobic total count, mean (aerobic total count; Example 9, cooked chicken, 0.2 g/kg, day 56 (8 weeks), mean of triplicate): 5.4 log cfu/g
aerobic total count (aerobic total count; Example 9, cooked chicken, 0.2 g/kg, day 56, samples 1-3, monohydrochloride): 5.3 log cfu/g and 5.2 log cfu/g and 5.5 log cfu/g
counts (aerobic total count) (aerobic total count; Example 9, cooked chicken, 0.2 g/kg): below 4.0 log cfu/g
aerobic total count, mean (aerobic total count; Example 14, cooked chicken, LAE 0.2 g/kg, day 0, mean of triplicate): 2.0 log cfu/g
aerobic total count, mean (aerobic total count; Example 14, cooked chicken, LAE 0.2 g/kg, day 7, mean of triplicate): 2.0 log cfu/g
aerobic total count (aerobic total count; Example 14, cooked chicken, LAE 0.2 g/kg, day 7, samples 1-3): 2.0 log cfu/g
aerobic total count, mean (aerobic total count; Example 14, cooked chicken, LAE 0.2 g/kg, day 14, mean of triplicate): 2.3 log cfu/g
aerobic total count (aerobic total count; Example 14, cooked chicken, LAE 0.2 g/kg, day 14, samples 1-3, monohydrochloride): 2.2 log cfu/g and 2.6 log cfu/g
aerobic total count, mean (aerobic total count; Example 14, cooked chicken, LAE 0.2 g/kg, day 21, mean of triplicate): 2.9 log cfu/g
aerobic total count (aerobic total count; Example 14, cooked chicken, LAE 0.2 g/kg, day 21, samples 1-3, monohydrochloride): 3.0 log cfu/g and 2.8 log cfu/g
aerobic total count, mean (aerobic total count; Example 14, cooked chicken, LAE 0.2 g/kg, day 28, mean of triplicate): 3.4 log cfu/g
aerobic total count (aerobic total count; Example 14, cooked chicken, LAE 0.2 g/kg, day 28, samples 1-3): 3.4 log cfu/g
aerobic total count (aerobic total count; Example 14, cooked chicken, LAE 0.2 g/kg, day 28, samples 1-3, monohydrochloride): 3.2 log cfu/g and 3.5 log cfu/g
aerobic total count, mean (aerobic total count; Example 14, cooked chicken, LAE 0.2 g/kg, day 35, mean of triplicate): 3.8 log cfu/g
aerobic total count (aerobic total count; Example 14, cooked chicken, LAE 0.2 g/kg, day 35, samples 1-3, monohydrochloride): 3.6 log cfu/g and 3.8 log cfu/g and 3.9 log cfu/g
aerobic total count, mean (aerobic total count; Example 14, cooked chicken, LAE 0.2 g/kg, day 42, mean of triplicate): 4.0 log cfu/g
aerobic total count (aerobic total count; Example 14, cooked chicken, LAE 0.2 g/kg, day 42, samples 1-3, monohydrochloride): 4.0 log cfu/g and 4.1 log cfu/g
aerobic total count, mean (aerobic total count; Example 14, cooked chicken, LAE 0.2 g/kg, day 49, mean of triplicate): 5.1 log cfu/g
aerobic total count (aerobic total count; Example 14, cooked chicken, LAE 0.2 g/kg, day 49, samples 1-3, monohydrochloride): 5.3 log cfu/g and 4.9 log cfu/g and 5.0 log cfu/g
aerobic total count, mean (aerobic total count; Example 14, cooked chicken, LAE 0.2 g/kg, day 56 (8 weeks), mean of triplicate): 5.6 log cfu/g
aerobic total count (aerobic total count; Example 14, cooked chicken, LAE 0.2 g/kg, day 56, samples 1-3, monohydrochloride): 5.2 log cfu/g
counts (aerobic total count) (aerobic total count; Example 14, cooked chicken, LAE 0.2 g/kg): below 4.0 log cfu/g
aerobic total count, mean (aerobic total count; Example 16, cooked chicken, 0.20 g of LAE/kg, day 0, mean of triplicate): 2.0 log cfu/g
aerobic total count, mean (aerobic total count; Example 16, cooked chicken, 0.20 g of LAE/kg, day 7, mean of triplicate): 2.0 log cfu/g
aerobic total count, mean (aerobic total count; Example 16, cooked chicken, 0.20 g of LAE/kg, day 14, mean of triplicate): 2.2 log cfu/g
aerobic total count, mean (aerobic total count; Example 16, cooked chicken, 0.20 g of LAE/kg, day 21, mean of triplicate): 2.8 log cfu/g
aerobic total count, mean (aerobic total count; Example 16, cooked chicken, 0.20 g of LAE/kg, day 28, mean of triplicate): 3.2 log cfu/g
aerobic total count, mean (aerobic total count; Example 16, cooked chicken, 0.20 g of LAE/kg, day 35, mean of triplicate): 3.6 log cfu/g
aerobic total count, mean (aerobic total count; Example 16, cooked chicken, 0.20 g of LAE/kg, day 42, mean of triplicate): 4.3 log cfu/g
aerobic total count, mean (aerobic total count; Example 16, cooked chicken, 0.20 g of LAE/kg, day 49, mean of triplicate): 4.9 log cfu/g
aerobic total count, mean (aerobic total count; Example 16, cooked chicken, 0.20 g of LAE/kg, day 56 (8 weeks), mean of triplicate): 5.5 log cfu/g
counts (aerobic total count) (aerobic total count; Example 16, cooked chicken, LAE 0.2 g/kg): below 4.0 log cfu/g
aerobic total count, mean (aerobic total count; Example 18, cooked chicken, 0.2 g of LAE/kg, day 0, mean of triplicate): 2.0 log cfu/g
aerobic total count, mean (aerobic total count; Example 18, cooked chicken, 0.2 g of LAE/kg, day 7, mean of triplicate): 2.0 log cfu/g
aerobic total count, mean (aerobic total count; Example 18, cooked chicken, 0.2 g of LAE/kg, day 14, mean of triplicate): 2.4 log cfu/g
aerobic total count, mean (aerobic total count; Example 18, cooked chicken, 0.2 g of LAE/kg, day 21, mean of triplicate): 2.9 log cfu/g
aerobic total count, mean (aerobic total count; Example 18, cooked chicken, 0.2 g of LAE/kg, day 28, mean of triplicate): 3.4 log cfu/g
aerobic total count, mean (aerobic total count; Example 18, cooked chicken, 0.2 g of LAE/kg, day 35, mean of triplicate): 3.7 log cfu/g
aerobic total count, mean (aerobic total count; Example 18, cooked chicken, 0.2 g of LAE/kg, day 42, mean of triplicate): 4.1 log cfu/g
aerobic total count, mean (aerobic total count; Example 18, cooked chicken, 0.2 g of LAE/kg, day 49, mean of triplicate): 5.2 log cfu/g
aerobic total count, mean (aerobic total count; Example 18, cooked chicken, 0.2 g of LAE/kg, day 56 (8 weeks), mean of triplicate): 5.7 log cfu/g
counts (aerobic total count) (aerobic total count; Example 18, cooked chicken, LAE 0.2 g/kg): below 4.0 log cfu/g
Concentration of LAE (HPLC method) expressed as % of initial dose, mean ([2]; 0 hours): 100 % of initial dose
Concentration of LAE (HPLC method) expressed as % of initial dose ([2]; 0 hours): 100 % of initial dose and 101 % of initial dose
Concentration of LAE (HPLC method) expressed as % of initial dose, mean ([2]; 4 hours): 100 % of initial dose
Concentration of LAE (HPLC method) expressed as % of initial dose ([2]; 4 hours): 101 % of initial dose and 99 % of initial dose and 100 % of initial dose
Concentration of LAE (HPLC method) expressed as % of initial dose, mean ([2]; 8 hours): 98 % of initial dose
Concentration of LAE (HPLC method) expressed as % of initial dose ([2]; 8 hours): 97 % of initial dose and 98 % of initial dose and 99 % of initial dose
Concentration of LAE (HPLC method) expressed as % of initial dose, mean ([2]; 16 hours): 95 % of initial dose
Concentration of LAE (HPLC method) expressed as % of initial dose ([2]; 16 hours): 95 % of initial dose and 96 % of initial dose
Concentration of LAE (HPLC method) expressed as % of initial dose, mean ([2]; 24 hours): 93 % of initial dose
Concentration of LAE (HPLC method) expressed as % of initial dose ([2]; 24 hours): 93 % of initial dose and 92 % of initial dose and 94 % of initial dose
hydrolysis of LAE ([2]; after 24 hours): ~10 % of the original dose
